Data set [1] has as its system HIV-1 (PBL286 (02ET_14), subtype C, Ethiopian isolate). In words: Anti-HIV screening in PBMC (Southern Research Institute). Format: cell-based. Conditions: for EC50: read-out: Antiviral Activity EC50; for EC90: read-out: Antiviral Activity EC90; for inhibition at 0.08 µg/mL: read-out: inhibition of HIV replication in PBMC.
Another data set is described as follows: in vitro. Conditions: human.
For data set [2], the system named is CXCR4-tropic HIV isolate NL4-3. In words: deCIPhR in vitro anti-HIV replication assay (β-galactosidase, LTR-driven LacZ). The format is cell-based.
Data set [3] deals with HIV provirus expression in J-Lat 10.6 T cells. In words: In vitro HIV latency reversal, GFP expression by flow cytometry. The format is cell-based. Particulars: 24 h.
A short description of data set [4]: Cell viability by resazurin dye. Format: cell-based. Particulars: human, Jurkat T cells (Clone E6-1), parental, lacking HIV provirus, read-out: viability relative to 0.1% DMSO. For orientation: Alamar Blue is a resazurin reagent that responds to reducing activity.
A further data set has as its system Jurkat cells. As to the kind of experiment: T cell activation, CD69 expression by flow cytometry. Particulars: 24 h. The format is cell-based. (In general: In flow cytometry, cells or beads pass a laser one at a time.)
Data set [5] in a line: Primary cell viability by trypan blue counting. The format is cell-based. Conditions: human, 3 donors, read-out: viability of primary CD4+ T cells.
Data set [6] relates to HIV-1 in primary CD4+ T cells from cART-suppressed donors. In words: Ex vivo latency reversal, supernatant viral RNA by qRT-PCR. Format: cell-based. Particulars: 24 h, 3 donors.
The nature of data set [7]: PBMC viability / cytotoxicity (MTS dye). Conditions: human. (In general: Tetrazolium assays rely on reduction of a dye to a coloured formazan, in cell work by metabolically active cells.)
A further data set has as its system HeLa-SXR5 cell line. As to the kind of experiment: Cytotoxicity under deCIPhR cell culture conditions (Alamar Blue, four days). Particulars: four days of incubation, any concentration (0.08 to 5 μg/mL).
In another data set the test system is J-Lat 10.6 cells. In words: Effect of PKC inhibitors Gö 6983 and enzastaurin on LRA-induced latency reversal. Format: cell-based. Particulars: 1 μM Gö 6983.
Setting [8] is: Human immunodeficiency virus 1, PBMC, subtype C virus.
[9] abbreviates: Human immunodeficiency virus 1, PBMC.

Like-named read-outs stand apart in the source and are kept apart here.

A word on the EC50: it is the concentration at which the effect is half-maximal. One may read the EC90 as the point of the concentration-response curve where the effect stands at 90%. For `Cc1cn([C@H]2C[C@H](N=[N+]=[N-])[C@@H](CO)O2)c(=O)[nH]c1=O` [AZT, azidothymidine, reference compound], in [1] (setting [8]), the half-maximal effective concentration (EC50) came to 0.007 µM and the concentration for an effect of 90% (EC90) stood at 0.05 µM. Besides, the “Selectivity Index CC50/IC50” value in data set [1] (PBMC) was >142. Moreover, in “in vitro”, the CC50 is > 1 µM.

In general, inhibition refers to the drop in the measured response relative to a control, in per cent. For orientation: viability means the share of living cells, or the viability signal relative to a control. `C=C(C)C12OC3(/C=C/C=C/CCC)OC1C1C4OC4(CO)C(O)C4(O)C(=O)C(C)=CC4C1(O3)C(C)C2OC(=O)c1ccccc1` (stereo not shown) [Compound 1, yuanhuacine A]: in data set [2] (test concentrations 0.08 to 5 μg/mL), the “inhibition of HIV replication across all test concentrations” value is 65–80%. Besides, in [1] (setting [9]), the 50% effective concentration (EC50) is 0.03 µM, the EC90 was found to be 0.09 µM and the inhibition at 0.08 µg/mL was > 80%. Moreover, the “Selectivity Index CC50/IC50” value in data set [1] (PBMC) is >500. Moreover, the “GFP expression (latency reversal), % of live-gated cells” value (“GFP expression (latency reversal), %” for short) in data set [3] (0.15 μM) amounted to 65.5 ± 6.3%. For the same compound, the viability at 24 h, 1.5 µM in data set [4] came out at 51.2 ± 11.2%. In addition, the CD69-positive cells with Jurkat cells (0.5 μM) is listed as 75.4 ± 2.2%. Also, in data set [5], the viability at 24 h, 1.5 µM is 96.4 ± 32.2%. Further, in data set [6] (1.5 μM), the “average fold increase in viral RNA” value is recorded as 10.8 fold and the “average supernatant viral RNA” value was 352.5 ± 430.4 copies/mL. The CC50 in [7] was > 15 µM. For the same compound, the “cytotoxicity (Alamar Blue)” value in the data set on HeLa-SXR5 cell line is reported as “no evidence of cytotoxicity at any concentration”.

On to `C=C(C)C12OC3(/C=C/C=C/CCCCC)OC1C1C4OC4(CO)C(O)C4(O)C(=O)C(C)=CC4C1(O3)C(C)C2OC(=O)c1ccccc1` (stereo not shown) [Compound 2, yuanhuacine], for which the inhibition at 0.08 µg/mL in data set [1] (setting [9]) is > 80%. Moreover, the “GFP expression (latency reversal), %” value in [3] (0.15 μM) is listed as 58.2 ± 4.7%. The viability at 24 h, 1.5 µM in [4] is 58.5 ± 15.9%; in data set [5], 79.6 ± 41.5%. The same compound displayed a CD69-positive cells in the data set on Jurkat cells (0.5 μM) of 74.5 ± 1.3%. Besides, in [6] (1.5 μM), the “average fold increase in viral RNA” value came to 9.1 fold. The “average supernatant viral RNA” value in data set [6] (1.5 μM) was determined as 297 ± 267 copies/mL.

Regarding `Cc1[nH]c2ccccc2c1CCNCc1ccc(/C=C/C(=O)NO)cc1` [Panobinostat, reference compound], the “effect of Gö 6983 on latency reversal” value in the data set on J-Lat 10.6 cells (LRA at 0.1 μM) is “unaffected”. The CD69-positive cells with Jurkat cells (0.1 μM) is recorded as 1.5 ± 1.3%.

As to `O=C1Nc2ccc(Cl)cc2[C@@](C#CC2CC2)(C(F)(F)F)O1` [efavirenz], the inhibition at 0.43 µM in data set [2] (Human immunodeficiency virus 1, NL43, 430 nM) worked out at 43.9 ± 41.9%. Besides, the inhibition at 0.93 µM in [2] (Human immunodeficiency virus 1, NL43, 930 nM) is 111 ± 22.1%. For the same compound, in data set [2] (Human immunodeficiency virus 1, NL43, 2000 nM), the inhibition at 2 µM is 107 ± 24.1%. Also, in [2] (Human immunodeficiency virus 1, NL43, 4300 nM), the inhibition at 4.3 µM is 100%.

Consider `CC(=O)O[C@@]12C[C@@H](C)[C@@]3(O)[C@@H](C=C(CO)C[C@]4(O)C(=O)C(C)=C[C@@H]34)[C@@H]1C2(C)C` [prostratin, reference compound], for which the “GFP expression (latency reversal), %” value in data set [3] (2.5 μM) came out at 66.0 ± 5.7%. The “reduction in latency reversal by pan-PKC inhibitor Gö 6983” value in the data set on J-Lat 10.6 cells (LRA at 2.5 μM) is given as 74.7 ± 17.3%. Moreover, the viability at 24 h, 0.5 µM in data set [4] (0.5 μM) is 56 ± 10%. The compound further returned a CD69-positive cells in the data set with Jurkat cells (2.5 μM) of 73.2 ± 1.3%. Also, the viability at 24 h, 10 µM in data set [5] (10 μM) amounted to 65.9 ± 12.4%. Further, in [6] (10 μM), the “average fold increase in viral RNA” value is 23.2 fold and the “average supernatant viral RNA” value was 755.5 ± 1144.2 copies/mL.
